From patent US7521478B2, “Total synthesis of myriaporones” (Pharma Mar, S.A.U., priority 2002, dated 2009)

Tests used:
Type in all cases: cell-based
[1] = tested on: LNCaP; test: Inhibition of cell growth by colorimetric SRB assay, LN-caP; conditions: Homo sapiens, LN-caP, 48 hours exposure; for CC50: cell killing, read-out: LC50 (the source's name); for IC (total growth inhibition): read-out: TGI
Outline: (§1)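 Absorbance of solubilized bound SRB (490 nm) quantified cell growth and viability after cells were exposed to compound for 48 h. Seeding was 5×10^3 cells per well in RPMI 1640/10% FBS, with 18 h attachment beforehand. GI, TGI and LC were calculated from means of triplicate wells.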

[2] = tested on: K-562; test: Inhibition of cell growth by colorimetric SRB assay, K-562; conditions: Homo sapiens, K562, K-562, 48 hours exposure; for CC50: cell killing, read-out: LC50 (the source's name); for IC (total growth inhibition): read-out: TGI
Outline: as §1

[3] = tested on: IGROV; test: Inhibition of cell growth by colorimetric SRB assay, IGROV; conditions: Homo sapiens, 48 hours exposure; for CC50: cell killing, read-out: LC50 (the source's name); for IC (total growth inhibition): read-out: TGI
Outline: as §1

[4] = tested on: SK-BR-3; test: Inhibition of cell growth by colorimetric SRB assay, SK-BR-3; conditions: SK-BR-3, 48 hours exposure; for GI50 / CC50: Homo sapiens; for CC50: cell killing, read-out: LC50 (the source's name); for TGI: total growth inhibition
Outline: as §1

[5] = tested on: LoVo; test: Inhibition of cell growth by colorimetric SRB assay, LOVO; conditions: Homo sapiens, LOVO, 48 hours exposure; for LC50: cell killing, read-out: LC50; for IC (total growth inhibition): read-out: TGI
Outline: as §1

[6] = tested on: HT-29; test: Inhibition of cell growth by colorimetric SRB assay, HT-29; conditions: Homo sapiens, HT-29, 48 hours exposure; for CC50: cell killing, read-out: LC50 (the source's name); for IC (total growth inhibition): read-out: TGI
Outline: as §1

[7] = tested on: PANC-1; test: Inhibition of cell growth by colorimetric SRB assay, PANC-1; conditions: Homo sapiens, PANC-1, 48 hours exposure; for CC50: cell killing, read-out: LC50 (the source's name); for IC (total growth inhibition): read-out: TGI
Outline: as §1

[8] = tested on: LoVo-Dox; test: Inhibition of cell growth by colorimetric SRB assay, LOVO-DOX; conditions: Homo sapiens, LOVO-DOX, 48 hours exposure; for LC50 (concentration for 50% cell killing): read-out: LC50; for IC (total growth inhibition): read-out: TGI
Outline: as §1

[9] = tested on: IGROV-ET; test: Inhibition of cell growth by colorimetric SRB assay, IGROV-ET; conditions: Homo sapiens, IGROV-ET, 48 hours exposure; for CC50: cell killing, read-out: LC50 (the source's name); for IC (total growth inhibition): read-out: TGI
Outline: as §1

[10] = tested on: A-549; test: Inhibition of cell growth by colorimetric SRB assay, A-549; conditions: Homo sapiens, A549, A-549, 48 hours exposure; for CC50: cell killing, read-out: LC50 (the source's name); for IC (total growth inhibition): read-out: TGI
Outline: as §1

[11] = tested on: HeLa-APL; test: Inhibition of cell growth by colorimetric SRB assay, HELA-APL; conditions: Homo sapiens, HELA-APL, 48 hours exposure; for CC50: cell killing, read-out: LC50 (the source's name)
Outline: as §1

[12] = tested on: DU-145; test: Inhibition of cell growth by colorimetric SRB assay, DU-145; conditions: Homo sapiens, DU-145, 48 hours exposure; for CC50: cell killing, read-out: LC50 (the source's name); for IC (total growth inhibition): read-out: TGI
Outline: as §1

[13] = tested on: HeLa; test: Inhibition of cell growth by colorimetric SRB assay, HELA; conditions: Homo sapiens, HELA, 48 hours exposure; for CC50: cell killing, read-out: LC50 (the source's name); for IC (total growth inhibition): read-out: TGI
Outline: as §1

[14] = tested on: SK-MEL-28; test: Inhibition of cell growth by colorimetric SRB assay, MEL-28; conditions: Homo sapiens, SK-MEL-28, MEL-28, 48 hours exposure; for CC50: cell killing, read-out: LC50 (the source's name); for IC (total growth inhibition): read-out: TGI
Outline: as §1

**Q.** Which results are given for `C/C=C\[C@H](C)[C@H]1OC1(C)[C@@H](O[Si](C)(C)C(C)(C)C)[C@@H](CO[Si](C)(C)C(C)(C)C)C(=O)[C@H](CO[Si](C)(C)C(C)(C)C)[C@H](CC(=O)CC)O[Si](C)(C)C(C)(C)C` (some centres unmarked) [Compound 19a]?
**A.** GI50 [1]: 12.1 µM; CC50 [1]: 12.1 µM; IC (total growth inhibition) [1]: 12.1 µM; GI50 [2]: 12.1 µM; CC50 [2]: 12.1 µM; IC (total growth inhibition) [2]: 12.1 µM; GI50 [3]: 12.1 µM; CC50 [3]: 12.1 µM; IC (total growth inhibition) [3]: 12.1 µM; GI50 [4]: 12.1 µM; CC50 [4]: 12.1 µM; TGI [4]: 1.21E−05 Molar; GI50 [5]: 12.1 µM; LC50 [5]: 12.1 µM; IC (total growth inhibition) [5]: 12.1 µM; GI50 [6]: 12.1 µM; CC50 [6]: 12.1 µM; IC (total growth inhibition) [6]: 12.1 µM; GI50 [7]: 12.1 µM; CC50 [7]: 12.1 µM; IC (total growth inhibition) [7]: 12.1 µM; GI50 [8]: 12.1 µM; LC50 (concentration for 50% cell killing) [8]: 12.1 µM; IC (total growth inhibition) [8]: 12.1 µM; GI50 [9]: 12.1 µM; CC50 [9]: 12.1 µM; IC (total growth inhibition) [9]: 12.1 µM; GI50 [10]: 12.1 µM; CC50 [10]: 12.1 µM; IC (total growth inhibition) [10]: 12.1 µM; CC50 [11]: 12.1 µM; GI50 [12]: 12.1 µM; CC50 [12]: 12.1 µM; IC (total growth inhibition) [12]: 12.1 µM; GI50 [13]: 12.1 µM; CC50 [13]: 12.1 µM; IC (total growth inhibition) [13]: 12.1 µM; GI50 [14]: 12.1 µM; CC50 [14]: 12.1 µM; IC (total growth inhibition) [14]: 12.1 µM

**Q.** How did the GI50 [1] turn out when `C/C=C\[C@H](C)[C@H]1OC1(C)[C@@H](O[Si](C)(C)C(C)(C)C)[C@@H](CO[Si](C)(C)C(C)(C)C)C(=O)[C@H](CO[Si](C)(C)C(C)(C)C)[C@@H](CC(=O)CC)O[Si](C)(C)C(C)(C)C` (some centres unmarked) [Compound 19b] was run?
**A.** 12 µM

**Q.** What about the CC50 [1] of the same molecule?
**A.** 12 µM

**Q.** What about the IC (total growth inhibition) [1] of the same molecule?
**A.** 12 µM

**Q.** And the GI50 [2]?
**A.** 12 µM

**Q.** What about the CC50 [2] of the same molecule?
**A.** 12 µM

**Q.** What about the IC (total growth inhibition) [2] of the same molecule?
**A.** 12 µM

**Q.** What about the GI50 [3] of the same molecule?
**A.** 12 µM

**Q.** And the CC50 [3]?
**A.** 12 µM

**Q.** What about the IC (total growth inhibition) [3] of the same molecule?
**A.** 12 µM

**Q.** What about the GI50 [4] of the same molecule?
**A.** 6.15 µM

**Q.** What about the CC50 [4] of the same molecule?
**A.** 12 µM

**Q.** What about the TGI [4] of the same molecule?
**A.** 1.17E−05 Molar

**Q.** And the GI50 [5]?
**A.** 12 µM

**Q.** What about the LC50 [5] of the same molecule?
**A.** 12 µM

**Q.** What about the IC (total growth inhibition) [5] of the same molecule?
**A.** 12 µM

**Q.** And the GI50 [6]?
**A.** 12 µM

**Q.** What about the CC50 [6] of the same molecule?
**A.** 12 µM

**Q.** What about the IC (total growth inhibition) [6] of the same molecule?
**A.** 12 µM

**Q.** What about the GI50 [7] of the same molecule?
**A.** 12 µM

**Q.** What about the CC50 [7] of the same molecule?
**A.** 12 µM

**Q.** What about the IC (total growth inhibition) [7] of the same molecule?
**A.** 12 µM

**Q.** And the GI50 [8]?
**A.** 12 µM

**Q.** And the LC50 (concentration for 50% cell killing) [8]?
**A.** 12 µM

**Q.** What about the IC (total growth inhibition) [8] of the same molecule?
**A.** 12 µM

**Q.** And the GI50 [9]?
**A.** 12 µM

**Q.** What about the CC50 [9] of the same molecule?
**A.** 12 µM

**Q.** And the IC (total growth inhibition) [9]?
**A.** 12 µM

**Q.** And the GI50 [10]?
**A.** 12 µM

**Q.** What about the CC50 [10] of the same molecule?
**A.** 12 µM

**Q.** What about the IC (total growth inhibition) [10] of the same molecule?
**A.** 12 µM

**Q.** What about the CC50 [11] of the same molecule?
**A.** 12 µM

**Q.** And the GI50 [12]?
**A.** 12 µM

**Q.** And the CC50 [12]?
**A.** 12 µM

**Q.** What about the IC (total growth inhibition) [12] of the same molecule?
**A.** 12 µM

**Q.** And the GI50 [13]?
**A.** 12 µM

**Q.** What about the CC50 [13] of the same molecule?
**A.** 12 µM

**Q.** And the IC (total growth inhibition) [13]?
**A.** 12 µM

**Q.** And the GI50 [14]?
**A.** 12 µM

**Q.** And the CC50 [14]?
**A.** 12 µM

**Q.** What about the IC (total growth inhibition) [14] of the same molecule?
**A.** 12 µM

**Q.** With `C/C=C\[C@H](C)[C@H]1O[C@@]1(C)[C@@H](O)[C@@H](COC(C)=O)C(=O)[C@H](CO)[C@@H](O)CC(=O)CC` [Compound 47] as the molecule, how does the GI50 [1] read?
**A.** 0.0813 µM

**Q.** What about the CC50 [1] of the same molecule?
**A.** 8.88 µM

**Q.** What about the IC (total growth inhibition) [1] of the same molecule?
**A.** 0.536 µM

**Q.** What about the GI50 [2] of the same molecule?
**A.** 0.294 µM

**Q.** What about the CC50 [2] of the same molecule?
**A.** 11.8 µM

**Q.** What about the IC (total growth inhibition) [2] of the same molecule?
**A.** 0.999 µM

**Q.** And the GI50 [3]?
**A.** 0.0639 µM

**Q.** And the CC50 [3]?
**A.** 24.1 µM

**Q.** And the IC (total growth inhibition) [3]?
**A.** 0.528 µM

**Q.** And the GI50 [4]?
**A.** 0.0231 µM

**Q.** And the CC50 [4]?
**A.** 2.3 µM

**Q.** What about the TGI [4] of the same molecule?
**A.** 1.18E−07 Molar

**Q.** What about the GI50 [5] of the same molecule?
**A.** 0.0403 µM

**Q.** And the LC50 [5]?
**A.** 17.7 µM

**Q.** What about the IC (total growth inhibition) [5] of the same molecule?
**A.** 0.374 µM

**Q.** What about the GI50 [6] of the same molecule?
**A.** 0.106 µM

**Q.** What about the CC50 [6] of the same molecule?
**A.** 24.1 µM

**Q.** And the IC (total growth inhibition) [6]?
**A.** 3.11 µM

**Q.** And the GI50 [7]?
**A.** 0.0905 µM

**Q.** And the CC50 [7]?
**A.** 19.5 µM

**Q.** What about the IC (total growth inhibition) [7] of the same molecule?
**A.** 2.38 µM

**Q.** What about the GI50 [8] of the same molecule?
**A.** 0.216 µM

**Q.** What about the LC50 (concentration for 50% cell killing) [8] of the same molecule?
**A.** 24.1 µM

**Q.** What about the IC (total growth inhibition) [8] of the same molecule?
**A.** 24.1 µM

**Q.** And the GI50 [9]?
**A.** 0.152 µM

**Q.** What about the CC50 [9] of the same molecule?
**A.** 24.1 µM

**Q.** What about the IC (total growth inhibition) [9] of the same molecule?
**A.** 1.08 µM

**Q.** And the GI50 [10]?
**A.** 0.151 µM

**Q.** What about the CC50 [10] of the same molecule?
**A.** 23.2 µM

**Q.** What about the IC (total growth inhibition) [10] of the same molecule?
**A.** 1.12 µM

**Q.** And the CC50 [11]?
**A.** 24.1 µM

**Q.** And the GI50 ([11]; read-out: GI50)?
**A.** 0.0796 µM

**Q.** What about the IC (total growth inhibition) ([11]; total growth inhibition, read-out: TGI) of the same molecule?
**A.** 0.591 µM

**Q.** What about the GI50 [12] of the same molecule?
**A.** 0.0815 µM

**Q.** And the CC50 [12]?
**A.** 24.1 µM

**Q.** And the IC (total growth inhibition) [12]?
**A.** 0.531 µM

**Q.** And the GI50 [13]?
**A.** 0.0717 µM

**Q.** And the CC50 [13]?
**A.** 13.5 µM

**Q.** And the IC (total growth inhibition) [13]?
**A.** 0.434 µM

**Q.** And the GI50 [14]?
**A.** 0.082 µM

**Q.** And the CC50 [14]?
**A.** 12.9 µM

**Q.** What about the IC (total growth inhibition) [14] of the same molecule?
**A.** 0.984 µM
